Laboratory results reported in patent US11547655B2, “Use of an extract of the pericarp of Nephelium lappaceum for hydrating the skin and/or mucous membranes” (BASF Beauty Care Solutions France S.A.S., priority 2017, dated 2023).

System: involucrin
Assay: Involucrin synthesis in normal human keratinocytes, ELISA assay
Format: cell-based
Conditions: for MEAN (% involucrin detected): relative to the control, n=3; for stimulation of involucrin synthesis: at the concentrations tested, corresponding to those present in the cosmetic ingredient of example 4
Procedure: Normal, that is to say non-pathological, human keratinocytes were cultured in an MCDB153 medium (Dutscher France) containing 2% of fetal calf serum. After culture for 3 days at 37° C., the growth medium was replaced with MCDB153 medium containing various final concentrations of extract of N. lappaceum (by weight relative to the total volume of the medium) or without extract (Control) (table 1). The culture medium was replaced then solubilized in an extraction buffer. The amount of involucrin was quantified by ELISA assay. The results obtained are expressed as % relative to the control (n=3) (MEAN: mean; SD: Standard deviation).
Normal, that is to say non-pathological, human keratinocytes were cultured in an MCDB153 medium (Dutscher France) containing 2% of fetal calf serum. After culture for 3 days at 37° C., the growth medium was replaced with MCDB153 medium containing two final concentrations of ellagic acid or of geranin (w/v final medium) or without ellagic acid or without geranin (Control) (table 3). The culture medium was replaced. The amount of involucrin was quantified by ELISA assay. The results obtained are expressed as % relative to the control (n=3).

SMILES	MEAN (% involucrin detected) (1.1 × 10^−4% (w/v medium)) [%]	MEAN (% involucrin detected) (1.9 × 10^−4% (w/v medium)) [%]	stimulation of involucrin synthesis	MEAN (% involucrin detected) (1.5 × 10^−3% (w/v medium)) [%]	MEAN (% involucrin detected) (9 × 10^−4% (w/v medium)) [%]
O=c1oc2c(O)c(O)cc3c(=O)oc4c(O)c(O)cc1c4c23 [Ellagic acid, ellagic acid]	68	32	Neither ellagic acid nor geranin stimulated involucrin synthesis	–	–
O=C1O[C@H]2[C@@H]3OC(=O)c4cc(O)c(O)c(O)c4-c4c(cc(O)c(O)c4O)C(=O)OC[C@H]2O[C@@H](OC(=O)c2cc(O)c(O)c(O)c2)[C@@H]3OC(=O)c2cc(O)c(O)c3c2[C@@H]2C1=CC(=O)[C@](O)(O3)C2(O)O [Geranin, geranin]	–	–	Neither ellagic acid nor geranin stimulated involucrin synthesis	29	78
